This note sets out measurements from ChEMBL document CHEMBL4411312, “Design, Synthesis, and Biological Evaluation of New 1-(Aryl-1 H-pyrrolyl)(phenyl)methyl-1 H-imidazole Derivatives as Antiprotozoal Agents” (J Med Chem, 2019).

pIC50: −log10 of the molar value. The source made the active and inactive calls. The rule behind the calls is not given here. A value given as a limit tells only on which side of the number the result lay.

The nature of data set [1]: Cytotoxicity against rat L6 cels assessed as reduction in cell viability after 72 hrs by Alamar Blue dye-based fluorometric analysis. Particulars: L6 cells. On the technique in general: Resazurin is reduced to fluorescent resorufin, in cell work by metabolically active cells.
Data set [2] in a line: Selectivity index, ratio of CC50 for rat L6 cels to IC50 for Leishmania donovani MHOM/ET/67/L82 axenic amastigote. The class given is toxicity. Particulars: L6 cells, read-out: Ratio IC50.
The test system of data set [3] is Plasmodium falciparum. As to the kind of experiment: Antiprotozoal activity against erythrocytic stage of Plasmodium falciparum K1 after 48 hrs by [3H]- hypoxanthine incorporation assay. The class given is functional, organism-based.
A short description of data set [4]: Selectivity index, ratio of CC50 for rat L6 cels to IC50 for erythrocytic stage of Plasmodium falciparum K1. The class given is toxicity. Particulars: L6 cells, read-out: Ratio IC50.
Data set [5] relates to Leishmania donovani. As to the kind of experiment: Antiprotozoal activity against Leishmania donovani MHOM/ET/67/L82 axenic amastigote after 72 hrs by inverted microscopic analysis. It counts as functional, organism-based. The note with it: MHOM/ET/67/L82, 72 h.
The target in data set [6] is Sterol 14-alpha demethylase (Trypanosoma cruzi (strain CL Brener)) (UniProt Q7Z1V1). As to the kind of experiment: Binding affinity to Trypanosoma cruzi CYP51 at 5 to 10 uM by UV-vis spectrophotometry.
Sterol 14-alpha demethylase (Trypanosoma cruzi (strain CL Brener)), sequence (Q7Z1V1 whole entry, looked up): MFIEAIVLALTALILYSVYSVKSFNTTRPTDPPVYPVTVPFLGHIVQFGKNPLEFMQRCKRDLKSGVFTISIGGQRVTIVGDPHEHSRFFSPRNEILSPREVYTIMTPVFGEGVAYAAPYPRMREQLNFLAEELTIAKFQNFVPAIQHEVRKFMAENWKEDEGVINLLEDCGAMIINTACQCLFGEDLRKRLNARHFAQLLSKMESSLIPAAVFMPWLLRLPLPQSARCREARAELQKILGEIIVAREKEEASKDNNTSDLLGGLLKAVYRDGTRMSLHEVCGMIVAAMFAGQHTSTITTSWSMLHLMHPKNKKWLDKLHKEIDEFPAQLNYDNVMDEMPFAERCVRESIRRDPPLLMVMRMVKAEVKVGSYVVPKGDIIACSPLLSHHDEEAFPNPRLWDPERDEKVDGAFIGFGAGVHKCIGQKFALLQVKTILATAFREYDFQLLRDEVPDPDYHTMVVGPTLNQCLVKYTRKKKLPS
Data set [7] relates to Trypanosoma brucei rhodesiense. As to the kind of experiment: Antiprotozoal activity against Trypanosoma brucei rhodesiense STIB900 trypomastigotes after 72 hrs by Alamar Blue dye-based fluorometric analysis. The class given is functional, organism-based. Particulars: STIB900, 72 h.
The subject of data set [8] is Trypanosoma cruzi. As to the kind of experiment: Antiprotozoal activity against Trypanosoma cruzi Tulahuen C2C4 amastigotes infected in rat L6 cells after 96 hrs by inverted microscopic analysis. The class given is functional, organism-based. Particulars: Tulahuen C2C4, L6, 96 h.
A short description of data set [9]: Selectivity index, ratio of CC50 for rat L6 cels to IC50 for Trypanosoma brucei rhodesiense STIB900 trypomastigotes. The class given is toxicity. Particulars: L6 cells, read-out: Ratio IC50.
The subject of data set [10] is Trypanosoma cruzi. Description: Potency index, ratio of benznidazole IC50 to compound IC50 for Trypanosoma cruzi Tulahuen C2C4 amastigotes infected in rat L6 cells after 96 hrs by inverted microscopic analysis. It counts as functional.

As a reminder, the CC50 is the concentration that lowers cell viability or growth by half. The term pIC50 denotes the IC50 on a negative log10 scale, so that one unit is a factor of ten. Low readings indicate a large IC50, high ones a small IC50. For the molecule `Clc1ccc(C(c2c[nH]cc2-c2ccc3ccccc3c2)n2ccnc2)c(Cl)c1` (stereo not given), in [1], the CC50 at 72 h was 6.54 µM. The figures for the selectivity ratio in data set [2] and in [4] were 1 and 19, respectively. The pIC50 in [3] is 6.47; in data set [5] it was 5.19; in [7], 4.81; in data set [8], 7.74. Also, the outcome in [6] was Active.

As to `Nc1nc(N)nc(Nc2ccc([As]3SCC(CO)S3)cc2)n1` (stereo not given) [MELARSOPROL], the CC50 at 72 h in data set [1] is 28.9 µM. Further, in data set [9], the selectivity ratio turned out to be 3280.

For the molecule `CS(=O)(=O)c1ccc(-c2c[nH]cc2C(c2ccc(Cl)cc2Cl)n2ccnc2)cc1` (stereo not given), the CC50 at 72 h in [1] was determined as 68 µM. Also, the selectivity ratio in data set [2] turned out to be 7; in data set [4], 52; in [9] it was 2. The pIC50 in data set [3] is 5.89; in data set [5] it was 4.99; in data set [7], 4.48; in data set [8], 7.54. Besides, in [10], the “Ratio IC50” value is reported as 57.

Take `Clc1ccc(C(c2c[nH]cc2-c2ccc(Cl)c3ccccc23)n2ccnc2)c(Cl)c1` (stereo not given): the CC50 at 72 h in data set [1] amounted to 4.9 µM. The selectivity ratio in [2] is 1; in data set [4], 15. The pIC50 was 6.48 in [3], 5.32 in [5], 4.78 in data set [7] and 7.32 in [8].

For the molecule `COc1ccc(-c2c[nH]cc2C(c2ccc(Cl)cc2Cl)n2ccnc2)cc1` (stereo not given), the CC50 at 72 h in data set [1] was 14.8 µM. In addition, the values for the selectivity ratio in data set [2] and in data set [4] were 3 and 32, respectively. Also, the pIC50 in data set [3] was 6.34; in [5] it was 5.26; in [7], 4.55; in data set [8] it was 7.30. The “Ratio IC50” value in [10] was determined as 57.

With `Clc1ccc(-c2c[nH]cc2[C@@H](c2ccc(Cl)cc2Cl)n2ccnc2)cc1`, in data set [1], the CC50 at 72 h came to 5.56 µM. Besides, the selectivity ratio in [2] was found to be 1; in data set [4], 51. The pIC50 is 6.96 in data set [3], 5.30 in data set [5], 4.91 in data set [7] and 7.77 in data set [8].

On to `CC(C)c1ccc(-c2c[nH]cc2C(c2ccc(Cl)cc2Cl)n2ccnc2)cc1` (stereo not given), for which, in data set [1], the CC50 at 72 h was 12.7 µM. Also, the selectivity ratio is 2 in data set [2] and 45 in data set [4]. In addition, the pIC50 in [3] was 6.55; in data set [5], 5.28; in data set [7], 4.62; in [8], 7.18. Moreover, the “Ratio IC50” value in data set [10] is recorded as 57.

In the case of `FC(F)(F)c1ccc(-n2ccc(C(c3ccc(Cl)cc3)n3ccnc3)c2)cc1` (stereo not given), the CC50 at 72 h in data set [1] worked out at 40.1 µM. For the same molecule, the figures for the selectivity ratio in data set [2], in data set [4] and in data set [9] were 2, 22 and 1, respectively. Moreover, the pIC50 in [3] is 5.74; in data set [5], 4.67; in data set [7], 4.51; in [8], under 4.13.

Regarding `O=C(Cn1ccnc1[N+](=O)[O-])NCc1ccccc1` [BENZNIDAZOLE], in data set [1], the CC50 at 72 h is over 385 µM.

As to `C[C@@H]1CC[C@H]2[C@@H](C)C(=O)O[C@@H]3O[C@@]4(C)CC[C@@H]1[C@]32OO4` [ARTEMISININ], in data set [1], the CC50 at 72 h is over 350 µM. In addition, the pIC50 in [3] is 8.15. Also, in data set [4], the selectivity ratio was over 50000.

In the case of `O=[N+]([O-])c1ccc(-n2ccc(C(c3ccc(Cl)cc3)n3ccnc3)c2)cc1` (stereo not given), in data set [1], the CC50 at 72 h was 82.4 µM. Besides, the selectivity ratio in data set [2] is 3; in data set [4] it was 18; in data set [9], 2. Moreover, the pIC50 in [3] was 5.34; in data set [5], 4.60; in data set [7], 4.39; in data set [8], 5.21.

In the case of `CSc1ccc(-c2c[nH]cc2C(c2ccc(Cl)cc2Cl)n2ccnc2)cc1` (stereo not given), the “Ratio IC50” value in [10] was found to be 57. In addition, in data set [8], the pIC50 was 7.37.

As to `Clc1ccc(C(c2c[nH]cc2-c2ccc(Cl)cc2-c2ccccc2)n2ccnc2)c(Cl)c1` (stereo not given), in [1], the CC50 at 72 h turned out to be 14.3 µM. The selectivity ratio in [2] came out at 1; in data set [4], 149. Also, the pIC50 in data set [3] is 7.02; in data set [5], 4.86; in [7], 4.54; in data set [8], 6.85. For the same molecule, the “Ratio IC50” value in data set [10] is reported as 4 - 12.

For the molecule `Cc1ccc(-c2c[nH]cc2C(c2ccc(Cl)cc2Cl)n2ccnc2)cc1` (stereo not given), the CC50 at 72 h in [1] came out at 18.4 µM. Moreover, the selectivity ratio in data set [2] was found to be 3; in data set [4], 63. The pIC50 in data set [3] was 6.54; in data set [5], 5.25; in data set [7], 4.73; in [8] it was 7.30. Also, the “Ratio IC50” value in data set [10] is listed as 57.

Regarding `O=[N+]([O-])c1ccc(C(c2ccn(-c3ccc([N+](=O)[O-])cc3)c2)n2ccnc2)cc1` (stereo not given), the CC50 at 72 h in [1] was determined as 159 µM. The selectivity ratio in data set [2] came to 9; in data set [4], 68; in data set [9], 13. For the same molecule, the pIC50 in data set [3] is 5.63; in [5], 4.75; in data set [7] it was 4.93; in data set [8], 5.44.

In the case of `N#Cc1ccc(C(c2ccn(-c3ccc(C#N)cc3)c2)n2ccnc2)cc1` (stereo not given), the CC50 at 72 h in [1] amounted to 139 µM. Also, the selectivity ratio is 2 in [2], 34 in data set [4] and 5 in data set [9]. In addition, the pIC50 in [3] was 5.39; in data set [5], 4.07; in [7], 4.56.

Turning to `Clc1ccc(C(c2c[nH]cc2-c2ccc(Cl)cc2-c2ccccc2)n2ccnc2)cc1` (stereo not given), the CC50 at 72 h in data set [1] turned out to be 14.9 µM. Further, the pIC50 is 7.23 in [3], 4.82 in data set [5], 4.46 in data set [7] and 6.69 in data set [8]. Besides, the selectivity ratio in [4] was found to be 253. Besides, the “Ratio IC50” value in [10] is reported as 4 - 12.

`Clc1ccc(C(c2c[nH]cc2-c2ccc(Cl)cc2-c2cccs2)n2ccnc2)c(Cl)c1` (stereo not given): in data set [1], the CC50 at 72 h stood at 4.93 µM. In addition, the selectivity ratio in data set [2] was 2; in data set [4] it was 18. For the same molecule, the pIC50 was 6.57 in data set [3], 5.56 in data set [5], 5.08 in data set [7] and 7.57 in data set [8]. In addition, the “Ratio IC50” value in data set [10] was 61.

As for `Clc1ccc(C(c2c[nH]cc2-c2ccc(Cl)cc2-n2cccc2)n2ccnc2)c(Cl)c1` (stereo not given), in data set [1], the CC50 at 72 h came to 7.67 µM. Also, the pIC50 is 5.34 in [3], 4.97 in data set [5], 4.92 in data set [7] and 4.92 in data set [8]. Besides, in [4], the selectivity ratio came to 2.

In the case of `CCc1ccc(-c2c[nH]cc2C(c2ccc(Cl)cc2Cl)n2ccnc2)cc1` (stereo not given), in [1], the CC50 at 72 h turned out to be 13.3 µM. The results for the selectivity ratio in [2] and in data set [4] were 3 and 45, respectively. The negative logarithm of the IC50 (pIC50) in [3] was 6.52; in data set [5], 5.31; in data set [7], 4.65; in [8], 7.18. For the same molecule, in data set [10], the “Ratio IC50” value turned out to be 57.

`CCN(CC)CCCC(C)Nc1ccnc2cc(Cl)ccc12` (stereo not given) [CHLOROQUINE]: in [1], the CC50 at 72 h turned out to be 92.8 µM.

Regarding `CCCCCCCCCCCCCCCCOP(=O)([O-])OCC[N+](C)(C)C` [MILTEFOSINE], the CC50 at 72 h in [1] amounted to 137 µM. Besides, the selectivity ratio in [2] came to 245.

With `O=[N+]([O-])c1ccc(-n2ccc(C(c3ccccc3)n3ccnc3)c2)cc1` (stereo not given), the CC50 at 72 h in [1] was found to be 60.4 µM. Moreover, the selectivity ratio in data set [2] was 2; in [4], 12; in data set [9], 4. Also, the pIC50 was 5.30 in data set [3], 4.51 in data set [5], 4.84 in data set [7] and 4.99 in data set [8].

Regarding `N#Cc1ccc(C(c2ccn(-c3ccc(Cl)cc3)c2)n2ccnc2)cc1` (stereo not given), the CC50 at 72 h in data set [1] was found to be 42.4 µM. For the same molecule, the selectivity ratio in [2] amounted to 1; in data set [4], 19; in [9], 1. Further, the pIC50 in [3] was 5.66; in data set [5], 4.52; in data set [7], 4.45; in data set [8], 5.41.

Turning to `Clc1ccc(-c2c[nH]cc2[C@H](c2ccc(Cl)cc2Cl)n2ccnc2)cc1`, the CC50 at 72 h in data set [1] is 2.56 µM. Moreover, the values for the pIC50 in [3], in [7] and in [8] were 7.04, 5.04 and 9.05, respectively. Also, the selectivity ratio in [4] was 28.
